Measurements taken from ChEMBL document CHEMBL1909046, “DrugMatrix in vitro pharmacology data”.

Legend:
[1] = biological target: Sigma non-opioid intracellular receptor 1 (Homo sapiens, UniProt Q99720); assay: DRUGMATRIX: Sigma1 radioligand binding (ligand: [3H] Haloperidol); type: cell membranes, Jurkat, Membrane; conditions: jurkat; Not Active = under 50% inhibition at 10 µM
[2] = DRUGMATRIX: Interleukin IL-1 radioligand binding (ligand: [125I] interleukin 1beta); type: cell membranes, Membrane; conditions: nih3t3; Not Active = under 50% inhibition at 10 µM
Progesterone receptor = biological target: T1, Progesterone receptor (Bos taurus, UniProt Q690N0); assay: DRUGMATRIX: Progesterone radioligand binding (ligand: [3H] R-5020); type: tissue-based, Uterus; conditions: Not Active = under 50% inhibition at 10 µM
T1 sequence (Q690N0 whole entry): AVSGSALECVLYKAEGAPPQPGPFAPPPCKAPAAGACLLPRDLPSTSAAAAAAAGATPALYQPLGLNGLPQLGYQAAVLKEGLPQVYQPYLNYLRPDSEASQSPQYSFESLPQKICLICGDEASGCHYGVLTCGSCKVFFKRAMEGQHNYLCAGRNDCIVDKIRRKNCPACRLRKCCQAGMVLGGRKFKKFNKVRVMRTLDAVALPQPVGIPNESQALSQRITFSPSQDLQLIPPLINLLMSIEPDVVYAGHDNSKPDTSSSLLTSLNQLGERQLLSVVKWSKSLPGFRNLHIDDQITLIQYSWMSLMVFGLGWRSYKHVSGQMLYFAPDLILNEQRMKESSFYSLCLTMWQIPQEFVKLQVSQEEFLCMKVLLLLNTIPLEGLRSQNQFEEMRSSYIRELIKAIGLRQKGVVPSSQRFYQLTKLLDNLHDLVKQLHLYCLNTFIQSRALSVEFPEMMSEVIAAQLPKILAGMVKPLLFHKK

[3] = DRUGMATRIX: GABAA, Muscimol, Central radioligand binding (ligand: [3H] Muscimol); type: cell membranes, Rattus norvegicus, Wistar, Brain, Membrane; conditions: Not Active = under 50% inhibition at 10 µM
[4] = biological target: T2, Alpha-2A adrenergic receptor (Homo sapiens, UniProt P08913); type: cell membranes, Sf9, Membrane; further: in other assays of this panel Not Active means under 50% inhibition at 10 µM
T2 sequence (P08913 whole entry): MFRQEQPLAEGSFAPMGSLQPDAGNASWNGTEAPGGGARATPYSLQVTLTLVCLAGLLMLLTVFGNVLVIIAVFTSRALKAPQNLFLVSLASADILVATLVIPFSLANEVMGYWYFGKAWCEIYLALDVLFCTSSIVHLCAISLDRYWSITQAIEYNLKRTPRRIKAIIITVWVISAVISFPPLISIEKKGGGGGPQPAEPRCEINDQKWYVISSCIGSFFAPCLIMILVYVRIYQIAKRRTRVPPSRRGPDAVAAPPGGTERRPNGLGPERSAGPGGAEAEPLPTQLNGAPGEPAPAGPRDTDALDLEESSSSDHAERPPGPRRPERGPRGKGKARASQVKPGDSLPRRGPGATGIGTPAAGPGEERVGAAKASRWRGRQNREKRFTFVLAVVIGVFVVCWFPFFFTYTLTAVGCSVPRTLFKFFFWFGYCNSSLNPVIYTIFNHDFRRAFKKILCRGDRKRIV

[5] = biological target: T3, Alpha-1B adrenergic receptor (Rattus norvegicus, UniProt P15823); assay: DRUGMATRIX: Alpha-1B adrenergic receptor radioligand binding (ligand: prazosin); type: cell membranes, Wistar, Liver, Membrane; conditions: Not Active = under 50% inhibition at 10 µM
T3 sequence (P15823 whole entry): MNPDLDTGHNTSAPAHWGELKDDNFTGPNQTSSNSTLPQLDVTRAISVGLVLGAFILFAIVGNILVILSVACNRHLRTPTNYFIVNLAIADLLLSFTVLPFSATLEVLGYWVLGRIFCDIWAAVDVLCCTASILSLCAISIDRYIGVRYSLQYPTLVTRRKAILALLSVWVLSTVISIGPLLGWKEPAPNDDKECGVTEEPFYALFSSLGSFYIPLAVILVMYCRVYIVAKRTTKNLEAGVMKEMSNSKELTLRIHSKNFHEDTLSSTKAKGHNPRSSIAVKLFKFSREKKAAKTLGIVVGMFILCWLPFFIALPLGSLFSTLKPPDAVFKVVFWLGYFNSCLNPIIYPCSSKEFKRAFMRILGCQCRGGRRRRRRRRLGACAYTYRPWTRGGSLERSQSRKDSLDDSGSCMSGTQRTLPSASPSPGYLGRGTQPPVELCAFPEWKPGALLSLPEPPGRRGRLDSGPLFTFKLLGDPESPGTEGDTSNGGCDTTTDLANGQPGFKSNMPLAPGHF

Chain of Sigma non-opioid intracellular receptor 1 (Q99720 whole entry): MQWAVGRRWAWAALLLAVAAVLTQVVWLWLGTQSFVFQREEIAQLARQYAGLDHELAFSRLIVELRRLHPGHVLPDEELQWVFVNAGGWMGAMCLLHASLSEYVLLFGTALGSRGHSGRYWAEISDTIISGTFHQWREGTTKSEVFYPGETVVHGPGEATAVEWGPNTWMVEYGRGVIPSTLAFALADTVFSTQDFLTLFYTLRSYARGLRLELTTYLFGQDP

Row | Structure (SMILES) | IC50 [1] | IC50 [2] | Ki [2] | IC50 (Progesterone receptor) | IC50 [3] | Ki [3] | IC50 ([4]; sf9) | IC50 [5] | IC50 (Progesterone receptor; read-out: IC50) [nM] | Ki (Progesterone receptor; read-out: Ki) [nM] | IC50 ([4]; read-out: IC50) [nM] | Ki ([4]; read-out: Ki) [nM]
1 | Cn1c(=O)c2c(ncn2C)n(C)c1=O [CAFFEINE] | Not Active | Not Active | Not Active | Not Active | Not Active | Not Active | Not Active | Not Active |  |  |  | 
2 | C[C@]12CC[C@H]3[C@@H](CCC4=CC(=O)CC[C@@H]43)[C@@H]1CC[C@@H]2O [NANDROLONE] | Not Active | Not Active | Not Active |  | Not Active | Not Active | Not Active | Not Active | 172 | 22.4 |  | 
3 | CS(=O)(=O)Nc1ccc([N+](=O)[O-])cc1Oc1ccccc1 [NIMESULIDE] | Not Active | Not Active | Not Active | Not Active | Not Active | Not Active | Not Active | Not Active |  |  |  | 
4 | CN1CCC(=C2c3ccccc3CC(=O)c3sccc32)CC1 [KETOTIFEN] | Not Active | Not Active | Not Active | Not Active | Not Active | Not Active |  | Not Active |  |  | 2190 | 820
5 | NC12CC3CC(CC(C3)C1)C2 [AMANTADINE] | Not Active | Not Active | Not Active | Not Active | Not Active | Not Active | Not Active | Not Active |  |  |  | 
6 | NC(=O)N1c2ccccc2CC(=O)c2ccccc21 [OXCARBAZEPINE] | Not Active | Not Active | Not Active | Not Active | Not Active | Not Active | Not Active | Not Active |  |  |  | 
